According to patent US8541473B2, “3-aminoxalyl-aminobenzamide derivatives and insecticidal and miticidal agents containing same as active ingredient” (Agro-Kanesho Co., Ltd., priority 2009, dated 2013):

Assays:
Type in all cases: in vivo
[1] = system: larvae of Plutella xylostella; assay: Insecticidal effect on larvae of Plutella xylostella (spray on potted Chinese cabbage); conditions: for rate of killed insects (larvae): 5 days after release of larvae, agonized larvae regarded as killed; for insecticidal effect: comparative compounds, result in words, stated against the 500 ppm result
Experimental: The seeds of Chinese cabbage were sowed in a pot and then the seedlings were raised over 3 weeks. A water-diluted emulsion prepared according to the procedures used in the foregoing drug-preparation Example 1 was sufficiently sprayed on the leaves of these potted plants using an air brush (one concentration, once repeated). After the drug-containing liquid was air-dried, the plants were kept in a thermostatic chamber maintained at 25° C. and the larvae of the insect were set free. After 5 days from the release of the larvae, the latter was examined for whether they were died or not and whether they were in agony or not and the rates of killed insects (larvae) (%) were determined, while the agonized larvae were regarded as killed ones. In this respect, the comparative compounds used in this test were compounds A and B disclosed in JP-A-2006-306771 (Patent Document 25).

[2] = system: female adults of Tetranychus urticae; assay: Miticidal effect on adults of Tetranychus urticae (spray on bean leaf-disks); conditions: for rate of killed adults: 4 days after drug-spray, agonized adults regarded as killed; for insecticidal effect: comparative compounds, result in words, stated against the 50 ppm result
Experimental: A polyethylene cup having a volume of 430 ml and filled with water was covered with a cap in which a hole (diameter: about 5 mm) had been formed at the center thereof. A cut having a width of about 5 mm was made on a circular filter paper having a diameter of 6.5 cm, the strip-like portion of the filter paper, which hung down, was inserted into the cup through the hole thereof in such a manner that the portion was immersed in the water contained in the cup, and absorbent cotton was put on the filter paper so that the water in the cup was always supplied to the absorbent cotton. Then, two leaf-disks (2 cm×5 cm) prepared from the primary leaves of bean were put on the absorbent cotton and then these two leaf-disks were inoculated with 10 female adults of Tetranychus urticae. This cup was placed in a cylinder of acrylic resin having a height of 50 cm and an inner diameter of 10 cm and a water-diluted emulsion prepared according to the same procedures used in the foregoing drug-preparation Example 1 was then sprayed on each cup in an amount of 1.35 ml per cup using an air brush (one concentration, once repeated). After the agricultural chemical was sprayed, the cups were kept in a thermostatic chamber maintained at a temperature of 25° C. After 4 days from the drug-spray, the adults were examined, under the observation by a prism binocular, for whether they were died or not and whether they were in agony or not and the rates of killed mites (adults) (%) were determined, while the agonized adults were regarded as killed ones. In this respect, the comparative compounds used in this test were compounds A and B disclosed in JP-A-2006-306771.

nymphs of Myzus persicae = assay: Effect of killing larvae of Myzus persicae (leaf piece immersion); conditions: for rate of killed nymphs: 7th day after treatment, agonized nymphs regarded as killed; for insecticidal effect: comparative compounds, result in words, stated against the 50 ppm result
Experimental: Three each of adults of Myzus persicae were inoculated on a cut piece (having a size of 3 cm×4 cm) of the leaf of Chinese cabbage and they were made breed for 48 hours within a thermostatic chamber maintained at a temperature of 25° C. After the removal of the adults, each cut piece of the leaf was immersed in a water-diluted emulsion prepared according to the same procedures used in the foregoing Drug-Preparation Example 1 for 5 seconds, and then kept in a thermostatic chamber maintained at 25° C. On 7th day after the foregoing treatment, the nymphs were inspected for whether they were died or not and whether they were in agony or not and the rates (%) of killed nymphs of the plant lice were determined, while the agonized nymphs were regarded as killed ones. In this respect, the comparative compounds used in this test were compounds A and B disclosed in JP-A-2006-306771.

Compound: CC(C)c1cc(C(F)(C(F)(F)F)C(F)(F)F)cc(Br)c1NC(=O)c1cccc(NC(=O)C(=O)N(C)CC(F)(F)F)c1 [Compound 1-96]
- rate of killed insects (larvae) ([1]; 12.5 ppm): 100%
- rate of killed adults ([2]; 12.5 ppm): 100%

Compound: CCc1cc(C(F)(C(F)(F)F)C(F)(F)F)cc(Br)c1NC(=O)c1cccc(NC(=O)C(=O)N(C)CC(F)F)c1 [Compound 1-109]
- rate of killed insects (larvae) ([1]; 12.5 ppm): 100%
- rate of killed insects (larvae) ([1]; 50 ppm): 100%
- rate of killed insects (larvae) ([1]; 500 ppm): 100%
- rate of killed adults ([2]; 12.5 ppm): 100%
- rate of killed adults ([2]; 50 ppm): 100%
- rate of killed nymphs (nymphs of Myzus persicae; 12.5 ppm): 100%
- rate of killed nymphs (nymphs of Myzus persicae; 50 ppm): 100%

Compound: Cc1cc(C(F)(C(F)(F)F)C(F)(F)F)cc(C)c1NC(=O)c1cccc(NC(=O)C(=O)NCCCCl)c1 [Compound 1-83]
- rate of killed insects (larvae) ([1]; 50 ppm): 100%

Compound: Cc1cc(C(F)(C(F)(F)F)C(F)(F)F)cc(C)c1NC(=O)c1cccc(NC(=O)C(=O)N(C)C(C)(C)C)c1 [Compound 1-28]
- rate of killed insects (larvae) ([1]; 5 ppm): 100%
- rate of killed adults ([2]; 5 ppm): 100%
- rate of killed nymphs (nymphs of Myzus persicae; 50 ppm): 100%

Compound: CCN(C)C(=O)C(=O)Nc1cccc(C(=O)Nc2c(Br)cc(C(F)(C(F)(F)F)C(F)(F)F)cc2C(C)C)c1 [Compound 1-74]
- rate of killed adults ([2]; 50 ppm): 100%

Compound: Cc1cc(C(F)(C(F)(F)F)C(F)(F)F)cc(C)c1NC(=O)c1cccc(NC(=O)C(=O)N(C)C(C)C)c1 [Compound 1-24]
- rate of killed nymphs (nymphs of Myzus persicae; 50 ppm): 100%

Compound: CCc1cc(C(F)(C(F)(F)F)C(F)(F)F)cc(C)c1NC(=O)c1cccc(NC(=O)C(=O)N(C)C(C)(C)CC)c1 [Compound 1-46]
- rate of killed adults ([2]; 12.5 ppm): 100%

Compound: Cc1cc(C(F)(C(F)(F)F)C(F)(F)F)cc(C)c1NC(=O)c1cccc(NC(=O)C(N)=O)c1 [Compound 1-1]
- rate of killed insects (larvae) ([1]; 500 ppm): 100%

Compound: CCc1cc(C(F)(C(F)(F)F)C(F)(F)F)cc(C)c1NC(=O)c1cccc(NC(=O)C(=O)N(C)C(C)(C)C)c1 [Compound 1-44]
- rate of killed insects (larvae) ([1]; 5 ppm): 100%
- rate of killed adults ([2]; 5 ppm): 100%
- rate of killed nymphs (nymphs of Myzus persicae; 50 ppm): 100%

Compound: Cc1cc(C(F)(C(F)(F)F)C(F)(F)F)cc(C)c1NC(=O)c1cccc(NC(=O)C(=O)NCCBr)c1 [Compound 1-80]
- rate of killed insects (larvae) ([1]; 500 ppm): 100%

Compound: CCc1cc(C(F)(F)C(F)(F)C(F)(F)F)cc(C)c1NC(=O)c1cccc(NC(=O)C(=O)N(C)C(C)(C)C)c1 [Compound 2-2]
- rate of killed nymphs (nymphs of Myzus persicae; 12.5 ppm): 100%

Compound: COc1cc(C(F)(C(F)(F)F)C(F)(F)F)cc(Cl)c1NC(=O)c1cccc(NC(=O)C(=O)N(C)CC(F)(F)F)c1 [Compound 1-112]
- rate of killed insects (larvae) ([1]; 12.5 ppm): 100%
- rate of killed insects (larvae) ([1]; 50 ppm): 100%
- rate of killed adults ([2]; 50 ppm): 100%

Compound: Cc1cc(C(F)(C(F)(F)F)C(F)(F)F)ccc1NC(=O)c1cccc(NC(=O)C(=O)N(C)C)c1 [Compound 1-53]
- rate of killed insects (larvae) ([1]; 50 ppm): 100%

Compound: CCN(C)C(=O)C(=O)Nc1cccc(C(=O)Nc2c(Cl)cc(C(F)(C(F)(F)F)C(F)(F)F)cc2OC(F)(F)F)c1 [Compound 1-115]
- rate of killed nymphs (nymphs of Myzus persicae; 12.5 ppm): 100%

Compound: Cc1cc(C(F)(C(F)(F)F)C(F)(F)F)cc(C)c1NC(=O)c1cccc(NC(=O)C(=O)NC2CCCC2)c1 [Compound 1-19]
- rate of killed insects (larvae) ([1]; 50 ppm): 100%

Compound: CCc1cc(C(F)(F)C(F)(F)C(F)(F)F)cc(C)c1NC(=O)c1cccc(NC(=O)C(=O)N(C)CC(F)(F)F)c1 [Compound 2-3]
- rate of killed insects (larvae) ([1]; 12.5 ppm): 100%

Compound: Cc1cc(C(F)(C(F)(F)F)C(F)(F)F)cc(I)c1NC(=O)c1cccc(NC(=O)C(=O)N(C)C(C)(C)C)c1 [Compound 1-65]
- rate of killed nymphs (nymphs of Myzus persicae; 12.5 ppm): 100%

Compound: CCOC(=O)C(=O)Nc1cccc(C(=O)Nc2c(C)cc(C(F)(C(F)(F)F)C(F)(F)F)cc2C)c1 [compound B, reference compound]
- insecticidal effect [1]: did not show any insecticidal effect
- insecticidal effect [2]: did not show any insecticidal effect
- insecticidal effect (nymphs of Myzus persicae): did not show any insecticidal effect

Compound: Cc1cc(C(F)(C(F)(F)F)C(F)(F)F)cc(C)c1NC(=O)c1cccc(NC(=O)C(=O)N(C)C)c1 [Compound 1-21]
- rate of killed nymphs (nymphs of Myzus persicae; 50 ppm): 100%

Compound: CCc1cc(C(F)(C(F)(F)F)C(F)(F)F)cc(C)c1NC(=O)c1cccc(NC(=O)C(=O)N(CC)C(C)(C)C)c1 [Compound 1-50]
- rate of killed adults ([2]; 12.5 ppm): 100%

Compound: CCc1cc(C(F)(C(F)(F)F)C(F)(F)F)cc(C)c1NC(=O)c1cccc(NC(=O)C(=O)N(C)CCF)c1 [Compound 1-103, 3-(N-(2-fluoroethyl)-N-methylaminooxalylamino)-N-(2-ethyl-4-heptafluoroisopropyl-6-methyl)phenylbenzamide]
- rate of killed adults ([2]; 12.5 ppm): 100%

Compound: CCN(CC)C(=O)C(=O)Nc1cccc(C(=O)Nc2c(C)cc(C(F)(C(F)(F)F)C(F)(F)F)cc2C)c1 [Compound 1-30]
- rate of killed insects (larvae) ([1]; 50 ppm): 100%

Compound: COC(=O)C(=O)Nc1cccc(C(=O)Nc2c(C)cc(C(F)(C(F)(F)F)C(F)(F)F)cc2C)c1 [compound A, reference compound]
- insecticidal effect [1]: did not show any insecticidal effect
- insecticidal effect [2]: did not show any insecticidal effect
- insecticidal effect (nymphs of Myzus persicae): did not show any insecticidal effect

Compound: Cc1cc(C(F)(C(F)(F)F)C(F)(F)F)cc(C)c1NC(=O)c1cccc(NC(=O)C(=O)NCCCl)c1 [Compound 1-75]
- rate of killed insects (larvae) ([1]; 5 ppm): 100%

Compound: CCc1cc(C(F)(C(F)(F)F)C(F)(F)F)cc(C)c1NC(=O)c1cccc(NC(=O)C(=O)N(C)C2CCC2)c1 [Compound 1-45]
- rate of killed insects (larvae) ([1]; 12.5 ppm): 100%

Compound: CCc1cc(C(F)(C(F)(F)F)C(F)(F)F)cc(C)c1NC(=O)c1cccc(NC(=O)C(=O)N(C)CC(F)(F)F)c1 [Compound 1-87]
- rate of killed nymphs (nymphs of Myzus persicae; 5 ppm): 100%
- rate of killed nymphs (nymphs of Myzus persicae; 50 ppm): 100%

Compound: CCc1cc(C(F)(C(F)(F)F)C(F)(F)F)cc(C)c1NC(=O)c1cccc(NC(=O)C(=O)N(C)CC(F)F)c1 [Compound 1-100]
- rate of killed adults ([2]; 12.5 ppm): 100%

Compound: CCc1cc(C(F)(C(F)(F)F)C(F)(F)F)cc(C)c1NC(=O)c1cccc(NC(=O)C(=O)N(CC)CC(F)(F)F)c1 [Compound 1-97]
- rate of killed nymphs (nymphs of Myzus persicae; 12.5 ppm): 100%

Compound: CCc1cc(C(F)(C(F)(F)F)C(F)(F)F)cc(C)c1NC(=O)c1cccc(NC(=O)C(=O)N(C)C(C)C)c1 [Compound 1-40]
- rate of killed adults ([2]; 5 ppm): 100%

Compound: CCc1cc(C(F)(C(F)(F)F)C(F)(F)F)cc(C)c1NC(=O)c1cccc(NC(=O)C(=O)N(C)C2CCCC2)c1 [Compound 1-47]
- rate of killed insects (larvae) ([1]; 50 ppm): 100%
- rate of killed nymphs (nymphs of Myzus persicae; 50 ppm): 100%

Compound: CCN(C)C(=O)C(=O)Nc1cccc(C(=O)Nc2c(C)cc(C(F)(C(F)(F)F)C(F)(F)F)cc2Br)c1 [Compound 1-62]
- rate of killed insects (larvae) ([1]; 12.5 ppm): 100%
- rate of killed insects (larvae) ([1]; 50 ppm): 100%
- rate of killed insects (larvae) ([1]; 500 ppm): 100%

Compound: CCc1cc(C(F)(C(F)(F)F)C(F)(F)F)cc(CC)c1NC(=O)c1cccc(NC(=O)C(=O)N(C)CC)c1 [Compound 1-57]
- rate of killed insects (larvae) ([1]; 5 ppm): 100%

Compound: CCc1cc(C(F)(C(F)(F)F)C(F)(F)F)cc(C)c1NC(=O)c1cccc(NC(=O)C(=O)N(C)CCCl)c1 [Compound 1-78]
- rate of killed adults ([2]; 50 ppm): 100%

Compound: Cc1cc(C(F)(C(F)(F)F)C(F)(F)F)cc(C)c1NC(=O)c1cccc(NC(=O)C(=O)N2CCCC2)c1 [Compound 1-33, 3-(pyrrolidin-1-yl-oxalylamino)-N-(2,6-dimethyl-4-heptafluoroisopropyl)phenylbenzamide]
- rate of killed nymphs (nymphs of Myzus persicae; 50 ppm): 100%

Compound: Cc1cc(C(F)(C(F)(F)F)C(F)(F)Br)cc(C)c1NC(=O)c1cccc(NC(=O)C(=O)N(C)CC(F)(F)F)c1 (centres unmarked) [Compound 2-15]
- rate of killed nymphs (nymphs of Myzus persicae; 12.5 ppm): 100%
